What all share (assay type): functional, cell-based
Assay [1] in a line: Cytotoxicity against human SCLC cells resistant to cisplatin (SCLC/CDDP).
Another assay relates to HL-60. The experiment in a line: Tested for inhibition against human promyelocytic leukemia cells (HL-60 ).
In assay [2] the test system is Tumor Cell line. The experiment in a line: Tested for the inhibition of human cancer cell growth (NCI drug-discovery screen.); Inactive.
The test system of another assay is N592. As to the kind of experiment: Cytotoxicity against human small-cell lung cancer (SCLC).
Assay [3] relates to Tumor Cell line. The experiment in a line: Tested for the inhibition of human cancer cell growth (NCI drug-discovery screen.).
Assay [4] deals with CCRF-CEM. As to the kind of experiment: Tested for inhibition against CEM cells. Conditions: Homo sapiens.
Assay [5] relates to CCRF-CEM. As to the kind of experiment: Tested for inhibition against CEM/MDR (multidrug resistant) cells. Conditions: Homo sapiens.

Active and inactive are the calls of the source. The rule behind the calls is not given here. Some results are limits rather than exact numbers.

For `CN(C)CCOc1cc2oc3c(c2c2ccccc12)C(=O)c1ccccc1C3=O`, the IC50 came out at 1950 nM in assay [1] (Homo sapiens, SCLC); 870 nM in the assay on HL-60; 1300 nM with N592 (Homo sapiens, N592). The “Log IC50” value with Tumor Cell line [2] was “inactive”.
In the case of `CN(C)CCCOc1ccc2c3c(oc2c1)C(=O)c1ccccc1C3=O`, the IC50 in assay [1] (Homo sapiens, SCLC) is 2600 nM; in the assay on HL-60, 340 nM; in the assay with N592 (Homo sapiens, N592), 1300 nM; in the assay with Tumor Cell line [3] it was 10000 nM.
With `COc1cc([C@@H]2c3cc4c(cc3[C@@H](O[C@@H]3O[C@@H]5CO[C@@H](C)O[C@H]5[C@H](O)[C@H]3O)[C@H]3COC(=O)[C@H]23)OCO4)cc(OC)c1O` [ETOPOSIDE], the IC50 in assay [1] (Homo sapiens, SCLC) came to 1300 nM; with N592 (Homo sapiens, N592), 500 nM.
The like results for `O=C1c2c(O)ccc(O)c2C(=O)c2c(NCCNCCO)ccc(NCCNCCO)c21` [MITOXANTRONE] were, in that order, 30 nM and 20 nM.
For the compound `O=C1c2ccccc2C(=O)c2c1oc1cc(O)ccc21`, the IC50 is > 3800 nM in assay [1] (Homo sapiens, SCLC); 7780 nM in the assay on HL-60; > 3800 nM in the assay with N592 (Homo sapiens, N592); 10000 nM with Tumor Cell line [3].
For `COc1cccc2c1C(=O)c1c(O)c3c(c(O)c1C2=O)C[C@@](O)(C(=O)CO)C[C@@H]3O[C@H]1C[C@H](N)[C@H](O)[C@H](C)O1` [DOXORUBICIN], the IC50 in assay [1] (Homo sapiens, SCLC) was 30 nM; in the assay with N592 (Homo sapiens, N592), 40 nM.
For `O=C1c2ccccc2C(=O)c2c1oc1cc3c(cc21)OCO3`, the IC50 in assay [1] (Homo sapiens, SCLC) was > 40300 nM; in the assay on HL-60 it was > 100000 nM; in the assay with N592 (Homo sapiens, N592), > 40300 nM.
With `CCN(CC)CCOc1cc(O)c2c3c(oc2c1)C(=O)c1ccccc1C3=O`, the IC50 in assay [1] (Homo sapiens, SCLC) is 480 nM; with HL-60 it was 98 nM; in the assay on N592 (Homo sapiens, N592) it was 240 nM; in the assay on Tumor Cell line [3] it was 100 nM.
For `CC[C@]1(O)C[C@@H]2CN(CCc3c([nH]c4ccccc34)[C@@](C(=O)OC)(c3cc4c(cc3OC)N(C)[C@H]3[C@@](O)(C(=O)OC)[C@H](OC(C)=O)[C@]5(CC)C=CCN6CC[C@]43[C@@H]65)C2)C1` [VINBLASTINE], the IC50 in assay [1] (Homo sapiens, SCLC) turned out to be 5 nM; with N592 (Homo sapiens, N592), 4 nM.
In the case of `CN(C)CCCOc1cc2oc3c(c2cc1Cl)C(=O)c1ccccc1C3=O`, the IC50 is 590 nM in assay [1] (Homo sapiens, SCLC); 280 nM in the assay with HL-60; 170 nM with CCRF-CEM [4]; 590 nM with N592 (Homo sapiens, N592); 10000 nM in the assay on Tumor Cell line [3]; 150 nM in the assay on CCRF-CEM [5].
In the case of CISPLATIN, the figures for the IC50 (in assay [1] (sclc); in the assay on N592 (n592)) were 6700 nM and 670 nM, respectively.
With `CN(C)CCCOc1cc(O)c2c3c(oc2c1)C(=O)c1ccccc1C3=O`, the IC50 is 680 nM in assay [1] (Homo sapiens, SCLC); 45 nM in the assay with HL-60; 680 nM with N592 (Homo sapiens, N592); 100 nM in the assay on Tumor Cell line [3].
`CN(C)CCOc1cc(O)c2c3c(oc2c1)C(=O)c1ccccc1C3=O`: the IC50 in assay [1] (Homo sapiens, SCLC) was 2560 nM; with HL-60, 46 nM; in the assay on N592 (Homo sapiens, N592), 2130 nM; in the assay on Tumor Cell line [3] it was 100 nM.
As for `CN(C)CCCOc1cc2oc3c(c2c2ccccc12)C(=O)c1ccccc1C3=O`, the IC50 was > 2500 nM in assay [1] (Homo sapiens, SCLC); 1390 nM in the assay with HL-60; > 2500 nM in the assay with N592 (Homo sapiens, N592). For the same compound, the “Log IC50” value with Tumor Cell line [2] is “inactive”.
In the case of `O=C1c2ccccc2C(=O)c2c1oc1cc(O)cc(O)c21`, the IC50 in assay [1] (Homo sapiens, SCLC) is 1280 nM; in the assay on HL-60 it was 220 nM; in the assay on CCRF-CEM [4], 500 nM; with N592 (Homo sapiens, N592), 1030 nM; in the assay on Tumor Cell line [3], 1000 nM; in the assay with CCRF-CEM [5] it was 600 nM.
In the case of `CN(C)CCOc1ccc2c3c(oc2c1)C(=O)c1ccccc1C3=O`, the IC50 in assay [1] (Homo sapiens, SCLC) was 940 nM; with HL-60, 300 nM; in the assay with CCRF-CEM [4], 200 nM; in the assay with N592 (Homo sapiens, N592), 730 nM; with Tumor Cell line [3], 10000 nM; in the assay on CCRF-CEM [5] it was 150 nM.
As for `O=C1c2ccccc2C(=O)c2c1oc1cc(O)c(Cl)cc21`, the IC50 in assay [1] (Homo sapiens, SCLC) was > 3400 nM; with HL-60 it was 6090 nM; in the assay with N592 (Homo sapiens, N592), > 3400 nM; in the assay with Tumor Cell line [3] it was 10000 nM.
Consider `Cc1cc(O)cc2oc3c(c12)C(=O)c1ccccc1C3=O`, for which the IC50 in assay [1] (Homo sapiens, SCLC) was > 3500 nM; in the assay on HL-60, 6650 nM; in the assay with N592 (Homo sapiens, N592), > 3500 nM. Further, the “Log IC50” value in the assay with Tumor Cell line [2] was “inactive”.
With `Cc1cc(OCCN(C)C)cc2oc3c(c12)C(=O)c1ccccc1C3=O`, the half-maximal inhibitory concentration (IC50) in assay [1] (Homo sapiens, SCLC) was > 2600 nM; in the assay on HL-60, 1800 nM; in the assay with N592 (Homo sapiens, N592), > 2600 nM.
For the compound `CC(C)N(CCOc1cc(O)c2c3c(oc2c1)C(=O)c1ccccc1C3=O)C(C)C`, the IC50 in assay [1] (Homo sapiens, SCLC) is 1130 nM; in the assay with HL-60, 89 nM; in the assay on N592 (Homo sapiens, N592), 220 nM; in the assay with Tumor Cell line [3] it was 1000 nM.
Consider `O=C1c2ccccc2C(=O)c2c1oc1cc(O)c3ccccc3c21`, for which the IC50 in assay [1] (Homo sapiens, SCLC) is > 3200 nM; in the assay with HL-60, 80600 nM; in the assay with N592 (Homo sapiens, N592), > 3200 nM.
In the case of `CN(C)CCOc1cc2oc3c(c2cc1Cl)C(=O)c1ccccc1C3=O`, the IC50 in assay [1] (Homo sapiens, SCLC) was 620 nM; with HL-60 it was 240 nM; in the assay with CCRF-CEM [4], 250 nM; in the assay on N592 (Homo sapiens, N592), 370 nM; in the assay on Tumor Cell line [3], 1000 nM; with CCRF-CEM [5] it was 300 nM.
In the case of `O=c1[nH]cc(F)c(=O)[nH]1` [FLUOROURACIL], the IC50 in assay [1] (Homo sapiens, SCLC) is 8400 nM; in the assay on N592 (Homo sapiens, N592), 5400 nM.

Usually IC50 stands for the concentration at which inhibition is half-maximal.

Values taken from ChEMBL document CHEMBL1127036, “Design of antineoplastic agents on the basis of the "2-phenylnaphthalene-type" structural pattern. 2. Synthesis and biological activity studies of benzo]b]naphtho[2,3-d]furan-6,11-dione derivatives” (J Med Chem, 1993).
